In patent US11273163B2, “Antiviral treatment” (priority 2020, dated 2022):
Values joined by “and” are separate entries in the source; they are usually repeats but may differ in a detail not shown here. Equal entries are not always repeated. Where two headings read alike, the source gives them in different places.

Legend:
[1] = system: SARS-CoV-2 B.1.1.7; assay: microbe, parasite or virus in culture; assay type: cell-based; settings: Severe acute respiratory syndrome coronavirus 2, Vero/TMPRSS2, 48 h, B1.1.7, 48 h, read-out: inhibition of infection (relative to no azelastine treated cells)
[2] = system: SARS-CoV-2 B.1.351; assay: microbe, parasite or virus in culture; assay type: cell-based; settings: Severe acute respiratory syndrome coronavirus 2, Vero/TMPRSS2, 48 h, read-out: inhibition of infection (relative to no azelastine treated cells)
[3] = system: SARS-CoV-2; assay: microbe, parasite or virus in culture; assay type: cell-based; settings: for reduction of viral particle numbers: up to; for viral particle/μL: 48 h post infection, median
[4] = system: reconstituted human nasal tissue (MucilAir); settings: without virus infection
[5] = system: influenza H1N1; assay type: cell-based, influenza A virus H1N1; settings: hydrochloride
[6] = system: HEp-2 cells; assay: Cytotoxicity towards HEp-2 cells, flow cytometry with propidium iodide; assay type: cell-based; settings: non-infected, 48 h
Description: Mean and SEM were calculated from 3 independent experiments.

[7] = system: SARS-CoV-2; assay type: cell-based; settings: Calu-3, MOI 0.01, 48 h
[8] = system: RSV Long strain; assay type: cell-based, Respiratory Syncytial Virus; settings: all 3 settings (preventive, co-administration, therapeutic), 48 h
[9] = system: RSV Long strain; assay type: cell-based, Respiratory Syncytial Virus; settings: 6.4 μM
[10] = system: SARS-CoV-2; assay type: cell-based; settings: for cytopathogenic score: Vero E6, MOI 0.1, 48 hours post infection

Compound: CN1CCCC(n2nc(Cc3ccc(Cl)cc3)c3ccccc3c2=O)CC1 (stereo not shown) [Azelastine, 4-[(4-chlorophenyl)methyl]-2-(1-methylazepan-4-yl)phthalazin-1-one]
- inhibition at 3.125 µM ([1]; preventive setting): 23.8%
- inhibition at 6.25 µM ([1]; preventive setting): 72.8%
- inhibition at 12.5 µM ([1]; preventive setting): 98.8%
- inhibition at 3.125 µM ([1]; therapeutic setting): 2.57%
- inhibition at 6.25 µM ([1]; therapeutic setting): 47.4%
- inhibition at 12.5 µM ([1]; therapeutic setting): 91.7%
- inhibition at 3.125 µM ([2]; preventive setting): 32.9%
- inhibition at 6.25 µM ([2]; preventive setting): 74.9%
- inhibition at 12.5 µM ([2]; preventive setting): 99.1%
- inhibition at 3.125 µM ([2]; therapeutic setting): 22%
- inhibition at 6.25 µM ([2]; therapeutic setting): 55%
- inhibition at 12.5 µM ([2]; therapeutic setting): 97.6%
- EC50 ([3]; Severe acute respiratory syndrome coronavirus 2, Vero C1008, wild-type SARS-CoV-2, read-out: EC50 observed for the wild-type virus): ~6 µM
- reduction of viral particle numbers ([3]; co-administration (simulating prevention)): > 99%
- viral particle/μL ([3]; co-administration, 3.125 μM): 98.4 viral particle/μL
- viral particle/μL ([3]; co-administration, 6.25 μM): 15.45 viral particle/μL
- viral particle/μL ([3]; co-administration, 12.5 μM): 12.25 viral particle/μL
- viral particle/μL ([3]; co-administration, 25 μM): 0.2 viral particle/μL
- viral particle/μL ([3]; post-infection administration, 3.125 μM): 138 viral particle/μL
- viral particle/μL ([3]; post-infection administration, 6.25 μM): 68.4 viral particle/μL
- viral particle/μL ([3]; post-infection administration, 12.5 μM): 52 viral particle/μL
- viral particle/μL ([3]; post-infection administration, 25 μM): 6.865 viral particle/μL
- reduction of viral particle numbers ([3]; post-infection administration): > 97%
- tissue morphology versus control [4]: No difference in tissue morphology

Compound: CN1CCCC(n2nc(Cc3ccc(Cl)cc3)c3ccccc3c2=O)CC1.Cl (stereo not shown) [Azelastine-HCl, 4-[(4-chlorophenyl)methyl]-2-(1-methylazepan-4-yl)phthalazin-1-one; hydrochloride]
- reduction in viral genome copy [5]: 98.74% and 87.4%
- cytotoxicity to HEp-2 cells ([6]; 12.8 μM): showed cytotoxicity
- cytotoxicity to HEp-2 cells ([6]; 25.6 μM): showed cytotoxicity
- reduction of viral particle numbers ([7]; 25 μM): over 90%
- reduction of viral particle numbers ([7]; 50 μM, up to): > 99%
- RSV infection of cells by spot count, compared to vehicle (DMSO) treated controls ([8]; 3.2 μM): ~50%
- RSV infection of cells by spot count, compared to vehicle (DMSO) treated controls ([8]; 6.4 μM): ~50%
- Ct (cycle threshold in PCR reaction) ([9]; co-administration, experiment #1): 27.99
- Ct (cycle threshold in PCR reaction) ([9]; co-administration, experiment #2): 27.21
- Ct (cycle threshold in PCR reaction) ([9]; preventive, experiment #1): 27.5
- Ct (cycle threshold in PCR reaction) ([9]; preventive, experiment #2): 27.17
- Ct (cycle threshold in PCR reaction) ([9]; therapeutic, experiment #1): 27.95
- Ct (cycle threshold in PCR reaction) ([9]; therapeutic, experiment #2): 27.27
- cytopathogenic score ([10]; 3.125 μM): 2
- cytopathogenic score ([10]; 6.25 μM): 2

Compound: Maraviroc
- cytopathogenic score ([10]; 3.125 μM): 4
- cytopathogenic score ([10]; 6.25 μM): 4
- cytopathogenic score ([10]; 12.5 μM): 3
- cytopathogenic score ([10]; 25 μM): 3
- cytopathogenic score ([10]; 50 μM): 3
- protective effect ([10]; higher concentrations (12.5 to 50 μM)): only marginal protective effect
- protective effect ([10]; lower concentrations): not effective at all
